Measured values as given in PMC6499206, “Quantification of Volatile Metabolites Derived From Garlic (Allium sativum) in Human Urine” (Frontiers in Nutrition, 2019).

Assay: Quantification of garlic-derived metabolites in human urine after ingestion of 3 g raw garlic (SIDA, SAFE, HRGC-MS / HRGC-GC-MS)
Assay type: in vivo
Parameters: metabolite in urine related to creatinine: unit not given here
Settings: for metabolite concentration in urine, creatinine-normalized / metabolite concentration in urine / highest detected concentration of the sample series: 3 g raw garlic; for highest detected concentration of the sample series: same bulb
Text: Human urine samples were obtained from 18 volunteers (age 22–38 years, mean 27 years; 11 females, 7 males); thereby, one volunteer conducted the whole experimental series twice. At the time of examination, volunteers reported no known illness that might have potentially influenced the metabolism or the excretion of urine. The test persons were instructed to avoid foods that were rich in sulfur-containing substances at the testing day as well as 2 days preceding the testing day, namely garlic, onion, wild garlic, chives, cabbage, and leek, and were only allowed to consume the garlic sample provided in the course of the experiments. Additionally, subjects were asked to keep records of the food (including food supplements) and beverages they consumed during these 3 testing days. Generally, the overall panelists' requirements were in accordance with our previous studies ([5], [16]).
On the sampling day, the outer garlic cloves of a whole garlic bulb were peeled and cut into ~3 mm cubes by using a garlic cutter (Genius GmbH, Limburg/Lahn, Germany). Subsequently these cubes were thoroughly mixed and aliquoted into 3 g portions. Three to four test persons conducted the experiment at the same day. Each test person was asked to ingest a garlic portion of 3 g. In total, eight consecutive urine samples were provided by each test person, comprising one whole urine set. The samples were collected in sterile brown glass bottles, with sampling times as follows: one sample was provided directly prior to garlic consumption. The series of the second to eighth sample was then obtained at about 0.5, 1, 2, 4, 6, 8, and 24 h after garlic consumption, respectively. Between the first urine sample (prior to garlic consumption) and the seventh urine sample (8 h after garlic consumption) test persons only spent urine at the specific time points mentioned before. Another sample was provided at the next morning (24 h after garlic consumption). Between the samples provided 8 and 24 h after garlic consumption no urine was collected. All samples were immediately placed into a −80°C freezer and were kept frozen until further analysis.
The samples of each set were termed according to their sampling time. The following list provides the time intervals that are related to the respective sample name: • - pre: before garlic consumption • - 0.5 h post: 0.4–0.8 h after garlic consumption • - 1 h post: 0.9–1.3 h after garlic consumption • - 2 h post: 1.8 h−2.2 h after garlic consumption • - 4 h post: 3.8–4.4 h after garlic consumption • - 6 h post: 5.8–6.4 h after garlic consumption • - 8 h post: 7.8–8.4 h after garlic consumption • - 24 h post: 23.8–25.6 h after garlic consumption
A creatinine kit (Labor+Technik Eberhard Lehmann GmbH, Berlin, Germany) was used to determine the creatinine content in each urine sample. The determination principle of this kit is based on the reaction of creatinine with picric acid under basic conditions (Jaffé reaction). The formed complex was detected photometrically at a wavelength of 492 nm.
For quantification purposes, the deuterated standards ^2H3-AMS, ^2H3-AMSO, and ^2H3-AMSO2 were added to the sample and stirred for 10 min. Subsequently, DCM was added in a ratio of 1:2 (DCM/human urine; v/v) and this solution was stirred for further 30 min at room temperature. To isolate the volatile fraction from the urine samples we then applied SAFE-distillation ([17]), thereby distilling the respective samples at 50°C. After completion of the distillation process, 10 mL of DCM were applied in each case to rinse the SAFE apparatus and to ensure complete transition of the volatile compounds. This process was repeated with another 10 mL of DCM. After thawing, the obtained aqueous distillate phase was extracted three times with 25 mL DCM. The organic phases were combined, dried over anhydrous Na2SO4 and concentrated to a total volume of 100 μL by means of Vigreux distillation and subsequent micro-distillation at 50°C. […]

## C=CC[S+](C)[O-] (stereo not shown) [AMSO, allyl methyl sulfoxide]
U XII, 1 h post (1.03 h)
  metabolite concentration in urine, creatinine-normalized: 83.2 µg/mmol creatinine
U XII, 2 h post (1.85 h)
  metabolite concentration in urine: 72.2 µg/kg
  metabolite concentration in urine, creatinine-normalized: 108.2 µg/mmol creatinine
U XII, 4 h post (3.80 h)
  metabolite concentration in urine: 84.6 µg/kg
  metabolite concentration in urine, creatinine-normalized: 31.9 µg/mmol creatinine
U XII, 6 h post (5.82 h)
  metabolite concentration in urine: 61.6 µg/kg
  metabolite concentration in urine, creatinine-normalized: 10.8 µg/mmol creatinine
U XII, 8 h post (7.82 h)
  metabolite concentration in urine: 28.7 µg/kg
  metabolite concentration in urine, creatinine-normalized: 10.1 µg/mmol creatinine
U XII, 24 h post (23.92 h)
  metabolite concentration in urine: 11.3 µg/kg
  metabolite concentration in urine, creatinine-normalized: 0.8 µg/mmol creatinine
U XII, pre (-0.08 h)
  metabolite concentration in urine: 3.9 µg/kg
  metabolite concentration in urine, creatinine-normalized: 0.2 µg/mmol creatinine
U XIII, 0.5 h post (0.42 h)
  metabolite concentration in urine: 38.0 µg/kg
  metabolite concentration in urine, creatinine-normalized: 23.8 µg/mmol creatinine
U XIII, 1 h post (0.92 h)
  metabolite concentration in urine: 216.6 µg/kg
  metabolite concentration in urine, creatinine-normalized: 87.7 µg/mmol creatinine
U XIII, 2 h post (1.92 h)
  metabolite concentration in urine: 197.5 µg/kg
  metabolite concentration in urine, creatinine-normalized: 57.1 µg/mmol creatinine
U XIII, 4 h post (3.92 h)
  metabolite concentration in urine: 105.6 µg/kg
  metabolite concentration in urine, creatinine-normalized: 22.5 µg/mmol creatinine
U XIII, 6 h post (5.92 h)
  metabolite concentration in urine: 42.9 µg/kg
  metabolite concentration in urine, creatinine-normalized: 3.7 µg/mmol creatinine
U XIII, 8 h post (7.92 h)
  metabolite concentration in urine: 2.6 µg/kg
  metabolite concentration in urine, creatinine-normalized: 0.3 µg/mmol creatinine
U XIII, 24 h post (23.92 h)
  metabolite concentration in urine: 2.6 µg/kg
  metabolite concentration in urine, creatinine-normalized: 0.3 µg/mmol creatinine
U XIII, pre (-0.08 h)
  metabolite concentration in urine: < LOD^2
  metabolite concentration in urine, creatinine-normalized: < LOD^2
Urine XIII-XVI, highest vs lowest maximum
  variation factor of the concentration maxima between test persons: up to 3.0
Urine XIII
  highest detected concentration of the sample series: 87.7 μg/mmol creatinine
Urine XIV (AMS: printed Urine UIV)
  highest detected concentration of the sample series: 84.7 μg/mmol creatinine
Urine XV
  highest detected concentration of the sample series: 150.4 μg/mmol creatinine
Urine XVI
  highest detected concentration of the sample series: 50.1 μg/mmol creatinine
Urine set U XIX, 0.5 h post (0.50 h), garlic 3.1133 g
  metabolite in urine related to creatinine: 15.1
Urine set U XIX, 1 h post (1.00 h), garlic 3.1133 g
  metabolite in urine related to creatinine: 68.8
Urine set U XIX, 2 h post (2.00 h), garlic 3.1133 g
  metabolite in urine related to creatinine: 70.6
Urine set U XIX, 4 h post (4.00 h), garlic 3.1133 g
  metabolite in urine related to creatinine: 27.0
Urine set U XIX, 6 h post (6.20 h), garlic 3.1133 g
  metabolite in urine related to creatinine: 9.8
Urine set U XIX, 8 h post (7.93 h), garlic 3.1133 g
  metabolite in urine related to creatinine: 5.9
Urine set U XIX, 24 h post (23.98 h), garlic 3.1133 g
  metabolite in urine related to creatinine: 0.2
Urine set U XIX, pre (-0.07 h), garlic 3.1133 g
  metabolite in urine related to creatinine: < LOD^2
Urine set U XVII, 0.5 h post (0.58 h), garlic 3.1559 g
  metabolite in urine related to creatinine: 0.8
Urine set U XVII, 1 h post (1.00 h), garlic 3.1559 g
  metabolite in urine related to creatinine: 10.7
Urine set U XVII, 2 h post (2.17 h), garlic 3.1559 g
  metabolite in urine related to creatinine: 27.6
Urine set U XVII, 4 h post (4.00 h), garlic 3.1559 g
  metabolite in urine related to creatinine: 15.5
Urine set U XVII, 6 h post (6.08 h), garlic 3.1559 g
  metabolite in urine related to creatinine: 1.2
Urine set U XVII, 8 h post (8.00 h), garlic 3.1559 g
  metabolite in urine related to creatinine: 1.8
Urine set U XVII, 24 h post (23.92 h), garlic 3.1559 g
  metabolite in urine related to creatinine: 0.2
Urine set U XVII, pre (-0.08 h), garlic 3.1559 g
  metabolite in urine related to creatinine: 0.3
Urine set U XVIII, 0.5 h post (0.63 h), garlic 3.1981 g
  metabolite in urine related to creatinine: 44.1
Urine set U XVIII, 1 h post (1.05 h), garlic 3.1981 g
  metabolite in urine related to creatinine: 84.8
Urine set U XVIII, 2 h post (2.00 h), garlic 3.1981 g
  metabolite in urine related to creatinine: 94.9
Urine set U XVIII, 4 h post (3.97 h), garlic 3.1981 g
  metabolite in urine related to creatinine: 50.9
Urine set U XVIII, 6 h post (5.97 h), garlic 3.1981 g
  metabolite in urine related to creatinine: 16.6
Urine set U XVIII, 8 h post (8.30 h), garlic 3.1981 g
  metabolite in urine related to creatinine: 17.1
Urine set U XVIII, 24 h post (24.13 h), garlic 3.1981 g
  metabolite in urine related to creatinine: 0.5
Urine set U XVIII, pre (-0.08 h), garlic 3.1981 g
  metabolite in urine related to creatinine: < LOD^2
